{
  "source": "patent US6348502B1",
  "about": "“Formulations for the treatment of gastro-oesophageal reflux” (Reckitt & Colman Products Limited, priority 1998, dated 2002)",
  "origin": "cited, not measured here",
  "key": {"gastric acid secretion": {"tested_on": "gastric acid secretion", "conditions": "rats"}, "[1]": {"tested_on": "topical injury by noxious agents such as ethanol", "conditions": "white rabbits, administered at the gastro-oesophageal junction via cannulae"}, "[2]": {"tested_on": "capsaicin-sensitive neurones", "conditions": "rats; stimulation of capsaicin-sensitive neurones"}, "[3]": {"tested_on": "acetic-acid induced gastric ulcers"}},
  "data": [
    {"compound": "COc1cc(CNC(=O)CCCC/C=C/C(C)C)ccc1O", "note": "[capsaicin, (E)-(N)-[(4-hydroxy-3-methoxphenyl)-methyl]-8-methyl-6-nonenamide]", "values": [
      {"measurement": "effect on gastric acid secretion", "setting": "gastric acid secretion", "result": "no effect"},
      {"measurement": "mucosal protection against topical injury", "setting": "[1]", "result": "provides mucosal protection"},
      {"measurement": "duodenal bicarbonate secretion", "setting": "[2]", "result": "increase duodenal bicarbonate secretion"},
      {"measurement": "protection of the gastric mucosa against experimental injury", "setting": "[3]; acetic-acid induced gastric ulceration in rats", "result": "protects the gastric mucosa against experimental injury"},
      {"measurement": "healing of acetic-acid induced gastric ulcers", "setting": "[3]; rats, introduced directly into an ex vivo chamber", "result": "promotes the healing"},
      {"measurement": "healing of acetic-acid induced gastric ulcers after prior administration of cimetidine", "setting": "[3]; rats, prior administration of cimetidine", "result": "blunted"}
    ]}
  ]
}
